Results reported in patent publication US20250154169A1, “COMPOUNDS AND METHODS FOR MODULATING SPLICING” (REMIX THERAPEUTICS INC., priority 2021, published 2025).
Structures can show the parent of a compound that is named as a salt. Where two headings read alike, the source gives them in different places.

Columns and labels:
Assay type in all cases: cell-based, human
[1] = system: SMN2 mRNA; experiment: Splicing RT-qPCR gene panel, SMN2 canonical junction (CJ) mRNA; conditions: Homo sapiens, Tables 4A/4B, read-out: SMN2 (IC50, decrease in CJ mRNA, gene panel)
How it was run: (§1)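 A673 or K562 cells treated 24 h at 37° C. with an 11-point 3-fold dilution series (top 10 uM, ≤0.25% DMSO). Lysates analysed by one-step RT-qPCR for canonical exon-exon junction transcripts, normalized to GAPDH, GUSB or PPIA and DMSO control (2^(−ΔΔCt)), then converted to percentage response.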

[2] = system: HTT mRNA; experiment: Splicing RT-qPCR assay, HTT canonical (CJ) and alternative (AJ) junction mRNA; conditions: Homo sapiens, A673 or K562 cells, 24 hours compound treatment; for IC50: 24 h, read-out: HTT CJ (IC50, decrease in canonical junction mRNA); for AC50: read-out: HTT AJ (AC50, increase in alternative junction mRNA)
How it was run: (§2)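 Read-out is the abundance of canonical-junction versus new alternative-exon-junction mRNA, determined by real-time qPCR after cDNA synthesis and normalized to a housekeeping gene. It is measured in A673 or K562 cells exposed to compounds for 24 h, top dose 10 uM.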

[3] = system: HTT mRNA; experiment: Splicing RT-qPCR gene panel, HTT canonical junction (CJ) mRNA; conditions: Homo sapiens, Tables 4A/4B, read-out: HTT (IC50, decrease in CJ mRNA, gene panel)
How it was run: as §1

[4] = system: MYB mRNA; experiment: Splicing RT-qPCR assay, MYB canonical (CJ) and alternative (AJ) junction mRNA; conditions: Homo sapiens; for AC50: read-out: MYB AJ (AC50, increase in alternative junction mRNA)
How it was run: as §2

[5] = system: Target C mRNA; experiment: Splicing RT-qPCR gene panel, Target C canonical junction (CJ) mRNA; conditions: Homo sapiens, Tables 4A/4B, read-out: Target C (IC50, decrease in CJ mRNA, gene panel)
How it was run: as §1

[6] = 24 h, A673 or K562 cells, 24 hours compound treatment, RT-qPCR
[7] = 24 h, A673 or K562 cells, 24 hours compound treatment, RT-qPCR, read-out: MYB CJ (IC50, decrease in canonical junction mRNA)
[8] = Tables 4A/4B, canonical junction qPCR panel, read-out: MYB (IC50, decrease in CJ mRNA, gene panel)

Compound | IC50 [1] | IC50 [2] | AC50 [2] | IC50 [3] | AC50 [4, 6] | IC50 [4, 7] | IC50 [4, 8] | IC50 [5]
Cc1cn2cc(NC(=O)c3ccc(N4CCNCC4)c4cn(CCCl)nc34)cc(F)c2n1 [Compound 337, 2-(2-chloroethyl)-N-{8-fluoro-2-methylimidazo[1,2-a]pyridin-6-yl}-4-(piperazin-1-yl)indazole-7-carboxamide] | < 100 nM | 1000 to 10000 nM | 1000 to 10000 nM | 1000 to 10000 nM | 100 to 1000 nM | 100 to 1000 nM | 100 to 1000 nM | > 10000 nM
Cc1cn2cc(NC(=O)c3ccc(N4CCNCC4)c4cn(CC5CCO5)nc34)cc(F)c2n1 (stereo not drawn) [Compound 338, N-{8-fluoro-2-methylimidazo[1,2-a]pyridin-6-yl}-2-(oxetan-2-ylmethyl)-4-(piperazin-1-yl)indazole-7-carboxamide] | < 100 nM | 1000 to 10000 nM | 1000 to 10000 nM | 1000 to 10000 nM | 100 to 1000 nM | 100 to 1000 nM | 100 to 1000 nM | > 10000 nM
CC(=O)Cn1cc2c(N3CCNCC3)ccc(C(=O)Nc3cc(F)c4nc(C)cn4c3)c2n1 [Compound 339, N-{8-fluoro-2-methylimidazo[1,2-a]pyridin-6-yl}-2-(2-oxopropyl)-4-(piperazin-1-yl)indazole-7-carboxamide] | 100 to 1000 nM | > 10000 nM | > 10000 nM | > 10000 nM | 1000 to 10000 nM | 1000 to 10000 nM | 1000 to 10000 nM | > 10000 nM
Cc1cn2cc(NC(=O)c3ccc(N4CCNCC4)c4cn(Cc5ccc6[nH]ncc6c5)nc34)cc(F)c2n1 [Compound 340, N-{8-fluoro-2-methylimidazo[1,2-a]pyridin-6-yl}-2-(1H-indazol-5-ylmethyl)-4-(piperazin-1-yl) indazole-7-carboxamide trifluoroacetate] | 100 to 1000 nM | > 10000 nM | > 10000 nM | > 10000 nM | 1000 to 10000 nM | 1000 to 10000 nM | 1000 to 10000 nM | > 10000 nM
Cc1cn2cc(NC(=O)c3ccc(N4CCNCC4)c4cn(Cc5cn[nH]c5)nc34)cc(F)c2n1 [Compound 341, N-{8-fluoro-2-methylimidazo[1,2-a]pyridin-6-yl}-4-(piperazin-1-yl)-2-(1H-pyrazol-4-ylmethyl)indazole-7-carboxamide] | 100 to 1000 nM | > 10000 nM | > 10000 nM | > 10000 nM | 1000 to 10000 nM | 1000 to 10000 nM | 1000 to 10000 nM | > 10000 nM
Cc1cn2cc(NC(=O)c3ccc(N4CCNCC4)c4cn(C)nc34)[nH]c(=O)c2n1 [Compound 342, N-{8-hydroxy-2-methylimidazo[1,2-a]pyrazin-6-yl}-2-methyl-4-(piperazin-1-yl) indazole-7-carboxamide] | > 10000 nM | > 10000 nM | > 10000 nM | > 10000 nM | > 10000 nM | 1000 to 10000 nM | 1000 to 10000 nM | > 10000 nM
COc1c(NC(=O)c2ccc(N3CCNCC3)c3cn(C)nc23)cn2cc(C)nc2c1F [Compound 343, N-{8-fluoro-7-methoxy-2-methylimidazo[1,2-a]pyridin-6-yl}-2-methyl-4-(piperazin-1-yl) indazole-7-carboxamide] | < 100 nM | < 100 nM | < 100 nM | < 100 nM | < 100 nM | < 100 nM | < 100 nM | 100 to 1000 nM
COc1c(NC(=O)c2ccc(N3CCNCC3)c3cn(C)nc23)cc2cn(C)nc2c1C [Compound 344, N-(6-methoxy-2,7-dimethylindazol-5-yl)-2-methyl-4-(piperazin-1-yl) indazole-7-carboxamide trifluoroacetate] | 100 to 1000 nM | > 10000 nM | > 10000 nM | > 10000 nM | 1000 to 10000 nM | 1000 to 10000 nM | 1000 to 10000 nM | > 10000 nM
Cc1cn2cc(NC(=O)c3ccc(N4CCC(NCc5ccccn5)CC4)c4cn(C)nc34)cc(F)c2n1 [Compound 347, N-{8-fluoro-2-methylimidazo[1,2-a]pyridin-6-yl}-2-methyl-4-{4-[(pyridin-2-ylmethyl)amino]piperidin-1-yl}indazole-7-carboxamide] | < 100 nM | 1000 to 10000 nM | 1000 to 10000 nM | 1000 to 10000 nM | < 100 nM | < 100 nM | < 100 nM | 1000 to 10000 nM
Cc1cn2cc(NC(=O)c3ccc(N4CCC5(CC4)CNC5)c4cn(C)nc34)cc(F)c2n1 [Compound 348, 4-{2,7-diazaspiro[3.5]nonan-7-yl}-N-{8-fluoro-2-methylimidazo[1,2-a]pyridin-6-yl}-2-methylindazole-7-carboxamide] | < 100 nM | 1000 to 10000 nM | 1000 to 10000 nM | 1000 to 10000 nM | < 100 nM | < 100 nM | < 100 nM | 1000 to 10000 nM
Cc1cn2cc(NC(=O)c3ccc(N4CCC5(CCCN5)CC4)c4cn(C)nc34)cc(F)c2n1 [Compound 349, 4-{1,8-diazaspiro[4.5]decan-8-yl}-N-{8-fluoro-2-methylimidazo[1,2-a]pyridin-6-yl}-2-methylindazole-7-carboxamide] | < 100 nM | 100 to 1000 nM | 100 to 1000 nM | 100 to 1000 nM | < 100 nM | < 100 nM | < 100 nM | 100 to 1000 nM
Cc1cn2cc(NC(=O)c3ccc(N4CCNCC4)c4cn(CC(C)(C)O)nc34)cc(F)c2n1 [Compound 354, N-{8-fluoro-2-methylimidazo[1,2-a]pyridin-6-yl}-2-(2-hydroxy-2-methylpropyl)-4-(piperazin-1-yl)indazole-7-carboxamide] | 100 to 1000 nM | > 10000 nM | > 10000 nM | > 10000 nM | 1000 to 10000 nM | 1000 to 10000 nM | 1000 to 10000 nM | > 10000 nM
Cc1cn2cc(NC(=O)c3ccc(N4CCNCC4)c4cn(C5CC(O)C5)nc34)cc(F)c2n1 (stereo not drawn) [Compound 355, N-{8-fluoro-2-methylimidazo[1,2-a]pyridin-6-yl}-2-(3-hydroxycyclobutyl)-4-(piperazin-1-yl)indazole-7-carboxamide] | < 100 nM | > 10000 nM | 1000 to 10000 nM | > 10000 nM | < 100 nM | < 100 nM | < 100 nM | > 10000 nM
Cc1cn2cc(NC(=O)c3ccc(N4CCNCC4)c4cn(C5CCOC5)nc34)cc(F)c2n1 (stereo not drawn) [Compound 356, N-{8-fluoro-2-methylimidazo[1,2-a]pyridin-6-yl}-2-(oxolan-3-yl)-4-(piperazin-1-yl)indazole-7-carboxamide] | < 100 nM | > 10000 nM | > 10000 nM | > 10000 nM | 100 to 1000 nM | 100 to 1000 nM | 100 to 1000 nM | > 10000 nM
Cc1cn2cc(NC(=O)c3ccc(N4CCNCC4)c4cn(CC5(O)CC5)nc34)cc(F)c2n1 [Compound 358, N-{8-fluoro-2-methylimidazo[1,2-a]pyridin-6-yl}-2-[(1-hydroxycyclopropyl)methyl]-4-(piperazin-1-yl)indazole-7-carboxamide] | < 100 nM | 1000 to 10000 nM | > 10000 nM | 1000 to 10000 nM | 100 to 1000 nM | 100 to 1000 nM | 100 to 1000 nM | > 10000 nM
